The values below come from US9493411B2 (AbbVie Inc., priority 2013, dated 2016).

One assay concerns the target T1, BRD4 (BDI_K57-E168) (Homo sapiens, UniProt O60885).
T1 construct: BD1: amino acids K57-E168; made in house
Put plainly: TR-FRET bromodomain binding assay, BRD4 first bromodomain. Conditions: His-tagged BD1, Alexa647-labeled probe 100 nM; Ki calculated from IC50. The protocol: (§1) A time-resolved fluorescence resonance energy transfer (TR-FRET) assay was used to determine the affinities of compounds of the Examples listed in Table 1 for each bromodomain of BRD4. His-tagged first (BD1: amino acids K57-E168) and second (BD2: amino acids E352-E168) bromodomains of BRD4 were expressed and purified. An Alexa647-labeled BET-inhibitor was used as the fluorescent probe in the assay.
(§2) Compound dilution series were prepared in DMSO via a 3-fold serial dilution from 2.5 mM to 42 nM. Compounds were then diluted 6:100 in assay buffer (20 mM Sodium Phosphate, pH 6.0, 50 mM NaCl, 1 mM Ethylenediaminetetraacetic acid disodium salt dihydrate, 0.01% Triton X-100, 1 mM DL-Dithiothreitol) to yield 3× working solutions. Six microliters (μL) of the working solution was then transferred to white, low-volume assay plates (Costar #3673). A 1.5× assay mixture containing His-tagged bromodomain, Europium-conjugated anti-His antibody (Invitrogen PV5596) and the Alexa-647-conjugated probe molecule was also prepared. Twelve μL of this solution were added to the assay plate to reach a final volume of 18 μL. The final concentration of 1× assay buffer contains 2% DMSO, 50 μM-0.85 nM compound, 8 nM His-tagged bromodomain, 1 nM Europium-conjugated anti-His-tag antibody and 100 nM or 30 nM probe (for BDI or BDII, respectively). After a one-hour incubation at room temperature, TR-FRET ratios were determined using an Envision multilabel plate reader (Ex 340, Em […]).
(§3) TR-FRET data were normalized to the means of 24 no-compound controls (“high”) and 8 controls containing 1 μM un-labeled probe (“low”). Percent inhibition was plotted as a function of compound concentration and the data were fit with the 4 parameter logistic equation to obtain IC50s. Inhibition constants (Ki) were calculated from the IC50s, probe Kd and probe concentration. Typical Z′ values were between 0.65 and 0.75. The minimum significant ratio was determined to evaluate assay reproducibility (Eastwood et al., (2006) J Biomol Screen, 11: 253-261). The MSR was determined to be 2.03 for BDI and 1.93 for BDII, and a moving MSR (last six run MSR overtime) for both BDI and BDII was typically <3.

The target in the next assay is T2, BRD4 (BDII_E352-M457) (Homo sapiens, UniProt O60885).
T2 construct: made in house
Put plainly: TR-FRET bromodomain binding assay, BRD4 second bromodomain. As to conditions: His-tagged BD2, Alexa647-labeled probe 30 nM; Ki calculated from IC50. The protocol:
as §1, §2, §3

By Ki is commonly meant a dissociation constant, usually derived from enzyme kinetics or from competition with a known ligand.

Structures are written as SMILES.

As to `Cc1[nH]c(-c2ccccc2NCc2cc(Cl)cc(Cl)c2)cc1C(N)=O` [Example 39, 5-{2-[(3,5-dichlorobenzyl)amino]phenyl}-2-methyl-1H-pyrrole-3-carboxamide], the Ki on BRD4 (BDI_K57-E168) is 3.82 µM; on BRD4 (BDII_E352-M457) it was 4.98 µM.
For `Cc1[nH]c(-c2ccccc2NCC2CCN(C(=O)OC(C)(C)C)CC2)cc1C(N)=O` [Example 41, tert-butyl 4-({[2-(4-carbamoyl-5-methyl-1H-pyrrol-2-yl)phenyl]amino}methyl)piperidine-1-carboxylate], the Ki is 0.48 µM at BRD4 (BDI_K57-E168) and 16.5 µM at BRD4 (BDII_E352-M457).
Regarding `Cc1[nH]c(-c2ccccc2NCc2ccc(N)cc2)cc1C(N)=O` [Example 52, 5-{2-[(4-aminobenzyl)amino]phenyl}-2-methyl-1H-pyrrole-3-carboxamide], the Ki at BRD4 (BDI_K57-E168) was 3.08 µM; on BRD4 (BDII_E352-M457), 16.4 µM.
Take `Cc1[nH]c(-c2ccccc2NCc2ccc(CO)o2)cc1C(N)=O` [Example 55, 5-[2-({[5-(hydroxymethyl)furan-2-yl]methyl}amino)phenyl]-2-methyl-1H-pyrrole-3-carboxamide]: the Ki at BRD4 (BDI_K57-E168) is 0.722 µM; on BRD4 (BDII_E352-M457), 4.94 µM.
For `CC(=O)Nc1ccc(CN(CC2CCCC2)c2ccccc2-c2cc(C(N)=O)c(C)[nH]2)cc1` [Example 59, 5-(2-{[4-(acetylamino)benzyl](cyclopentylmethyl)amino}phenyl)-2-methyl-1H-pyrrole-3-carboxamide] the same measures were 2.13 µM and 3.31 µM.
`Cc1[nH]c(-c2ccccc2N(Cc2cccs2)CC2CCCC2)cc1C(N)=O` [Example 60, 5-{2-[(cyclopentylmethyl)(thiophen-2-ylmethyl)amino]phenyl}-2-methyl-1H-pyrrole-3-carboxamide]: the inhibition constant Ki at BRD4 (BDI_K57-E168) is 5.1 µM; on BRD4 (BDII_E352-M457) it was 20.5 µM.
For `Cc1[nH]c(-c2ccccc2NC2CCNCC2)cc1C(N)=O` [Example 65, 2-methyl-5-[2-(piperidin-4-ylamino)phenyl]-1H-pyrrole-3-carboxamide] the same measures were 0.634 µM and 12.2 µM.
The like results for `Cc1[nH]c(-c2ccccc2NC2CCC2)cc1C(N)=O` [Example 66, 5-[2-(cyclobutylamino)phenyl]-2-methyl-1H-pyrrole-3-carboxamide] were, in that order, 1.76 µM and 6.15 µM.
For `Cc1[nH]c(-c2ccccc2NC2Cc3ccccc3C2)cc1C(N)=O` [Example 69, 5-[2-(2,3-dihydro-1H-inden-2-ylamino)phenyl]-2-methyl-1H-pyrrole-3-carboxamide] the same measures were 0.663 µM and 2.34 µM.
Take `Cc1[nH]c(-c2ccccc2NC2CCCCCC2)cc1C(N)=O` [Example 73, 5-[2-(cycloheptylamino)phenyl]-2-methyl-1H-pyrrole-3-carboxamide]: the Ki at BRD4 (BDI_K57-E168) was 0.862 µM; at BRD4 (BDII_E352-M457), 3.83 µM.
For the compound `Cc1[nH]c(-c2ccccc2NC2CCc3ccccc3C2)cc1C(N)=O` (stereo not drawn) [Example 74, 2-methyl-5-[2-(1,2,3,4-tetrahydronaphthalen-2-ylamino)phenyl]-1H-pyrrole-3-carboxamide], the values for the Ki at BRD4 (BDI_K57-E168) and on BRD4 (BDII_E352-M457) were 0.526 µM and 1.65 µM, respectively.
For the compound `Cc1[nH]c(-c2ccccc2Nc2ccccc2)cc1C(N)=O` [Example 77, 2-methyl-5-[2-(phenylamino)phenyl]-1H-pyrrole-3-carboxamide], the Ki on BRD4 (BDI_K57-E168) was 0.172 µM; on BRD4 (BDII_E352-M457) it was 0.983 µM.
Regarding `Cc1[nH]c(-c2ccccc2NS(=O)(=O)c2ccccc2)cc1C(N)=O` [Example 78, 2-methyl-5-{2-[(phenylsulfonyl)amino]phenyl}-1H-pyrrole-3-carboxamide], the inhibition constant (Ki) at BRD4 (BDI_K57-E168) was 3.99 µM; on BRD4 (BDII_E352-M457), 0.712 µM.
As to `Cc1[nH]c(-c2ccccc2NS(=O)(=O)C2CCCCC2)cc1C(N)=O` [Example 79, 5-{2-[(cyclohexylsulfonyl)amino]phenyl}-2-methyl-1H-pyrrole-3-carboxamide], the values for the Ki at BRD4 (BDI_K57-E168) and on BRD4 (BDII_E352-M457) were 0.904 µM and 2.65 µM, respectively.
Consider `Cc1[nH]c(-c2ccccc2NS(=O)(=O)c2cccnc2)cc1C(N)=O` [Example 80, 2-methyl-5-{2-[(pyridin-3-ylsulfonyl)amino]phenyl}-1H-pyrrole-3-carboxamide], for which the results for the Ki at BRD4 (BDI_K57-E168) and on BRD4 (BDII_E352-M457) were 9.39 µM and 13.4 µM, respectively.
`Cc1[nH]c(-c2ccccc2NS(=O)(=O)CCC(F)(F)F)cc1C(N)=O` [Example 82, 2-methyl-5-(2-{[(3,3,3-trifluoropropyl)sulfonyl]amino}phenyl)-1H-pyrrole-3-carboxamide]: the Ki was 2.96 µM on BRD4 (BDI_K57-E168) and 8.72 µM on BRD4 (BDII_E352-M457).
As for `Cc1[nH]c(-c2ccccc2NS(=O)(=O)CC(F)(F)F)cc1C(N)=O` [Example 86, 2-methyl-5-(2-{[(2,2,2-trifluoroethyl)sulfonyl]amino}phenyl)-1H-pyrrole-3-carboxamide], the Ki at BRD4 (BDI_K57-E168) is 3.03 µM; on BRD4 (BDII_E352-M457), 2.6 µM.
As for `Cc1[nH]c(-c2ccccc2Oc2ccccc2)cc1C(N)=O` [Example 89, 2-methyl-5-(2-phenoxyphenyl)-1H-pyrrole-3-carboxamide], the Ki was 0.122 µM at BRD4 (BDI_K57-E168) and 0.351 µM on BRD4 (BDII_E352-M457).
For `Cc1[nH]c(-c2c(N)cccc2Oc2ccccc2)cc1C(N)=O` [Example 91, 5-(2-amino-6-phenoxyphenyl)-2-methyl-1H-pyrrole-3-carboxamide] the same measures were 0.331 µM and 3.35 µM.
Turning to `Cc1noc(C)c1-c1ccc(-c2cc(C(N)=O)c(C)[nH]2)cc1` [Example 92, 5-[4-(3,5-dimethyl-1,2-oxazol-4-yl)phenyl]-2-methyl-1H-pyrrole-3-carboxamide], the results for the Ki at BRD4 (BDI_K57-E168) and at BRD4 (BDII_E352-M457) were 1.69 µM and 2.43 µM, respectively.
On to `COC(=O)CCNC(=O)c1cc(-c2ccc(-c3c(C)noc3C)cc2)[nH]c1C` [Example 93, methyl N-({5-[4-(3,5-dimethyl-1,2-oxazol-4-yl)phenyl]-2-methyl-1H-pyrrol-3-yl}carbonyl)-beta-alaninate], for which the Ki on BRD4 (BDI_K57-E168) was 5.09 µM; on BRD4 (BDII_E352-M457) it was 6.42 µM.
As to `COC(=O)CNC(=O)c1cc(-c2ccc(-c3c(C)noc3C)cc2)[nH]c1C` [Example 94, methyl N-({5-[4-(3,5-dimethyl-1,2-oxazol-4-yl)phenyl]-2-methyl-1H-pyrrol-3-yl}carbonyl)glycinate], the inhibition constant Ki on BRD4 (BDI_K57-E168) is 4.82 µM; at BRD4 (BDII_E352-M457), 21.5 µM.
For the compound `Cc1noc(C)c1-c1ccc(-c2cc(C(=O)NO)c(C)[nH]2)cc1` [Example 95, 5-[4-(3,5-dimethyl-1,2-oxazol-4-yl)phenyl]-N-hydroxy-2-methyl-1H-pyrrole-3-carboxamide], the Ki on BRD4 (BDI_K57-E168) was 5.07 µM; at BRD4 (BDII_E352-M457), 5.62 µM.
For `CCOC(=O)CCN(Cc1ccccc1)C(=O)c1cc(-c2ccc(-c3c(C)noc3C)cc2)[nH]c1C` [Example 96, ethyl N-benzyl-N-({5-[4-(3,5-dimethyl-1,2-oxazol-4-yl)phenyl]-2-methyl-1H-pyrrol-3-yl}carbonyl)-beta-alaninate] the same measures were 3.19 µM and 21.5 µM.
In the case of `Cc1[nH]c(-c2ccc(-c3cccc(O)c3)cc2)cc1C(N)=O` [Example 98, 5-(3′-hydroxybiphenyl-4-yl)-2-methyl-1H-pyrrole-3-carboxamide], the Ki on BRD4 (BDI_K57-E168) was 11.3 µM; at BRD4 (BDII_E352-M457) it was 7.01 µM.
With `COc1cc(-c2ccc(-c3cc(C(N)=O)c(C)[nH]3)cc2)cc(OC)c1OC` [Example 99, 2-methyl-5-(3′,4′,5′-trimethoxybiphenyl-4-yl)-1H-pyrrole-3-carboxamide], the results for the Ki at BRD4 (BDI_K57-E168) and on BRD4 (BDII_E352-M457) were 2.3 µM and 2.32 µM, respectively.
`Cc1[nH]c(-c2ccc(-c3ccoc3)cc2)cc1C(N)=O` [Example 100, 5-[4-(furan-3-yl)phenyl]-2-methyl-1H-pyrrole-3-carboxamide]: the Ki at BRD4 (BDI_K57-E168) was 8.36 µM; at BRD4 (BDII_E352-M457), 5.32 µM.
With `Cc1[nH]c(-c2ccc(-c3ccsc3)cc2)cc1C(N)=O` [Example 101, 2-methyl-5-[4-(thiophen-3-yl)phenyl]-1H-pyrrole-3-carboxamide], the results for the Ki at BRD4 (BDI_K57-E168) and on BRD4 (BDII_E352-M457) were 7.37 µM and 5.33 µM, respectively.
As to `Cc1[nH]c(-c2ccc(-c3ccncc3)cc2)cc1C(N)=O` [Example 102, 2-methyl-5-[4-(pyridin-4-yl)phenyl]-1H-pyrrole-3-carboxamide], the Ki at BRD4 (BDI_K57-E168) is 5.68 µM; on BRD4 (BDII_E352-M457) it was 4.37 µM.
The like results for `Cc1[nH]c(-c2ccc(-c3cnn(C)c3)cc2)cc1C(N)=O` [Example 103, 2-methyl-5-[4-(1-methyl-1H-pyrazol-4-yl)phenyl]-1H-pyrrole-3-carboxamide] were, in that order, 4.66 µM and 3.48 µM.
